Earlier results in patent US20230413813A1, “ANTIMICROBIAL COMPOSITION COMPRISING A POLYIMIDE” (The Procter & Gamble Company, priority 2022, published 2023).

Question: Which solubility in water does the source give for `CC(=O)O.CC(=O)O.NC(=N\CCCCCC/N=C(N)/N=C(\N)Nc1ccc(Cl)cc1)/N=C(\N)Nc1ccc(Cl)cc1` [Chlorhexidine diaceate, Chlorhexidine diacetate] here?
Answer: Its solubility in water is about 1%.
